Source: patent publication US11161856B2 (H. Lundbeck A/S, priority 2017, dated 2021)

Columns and labels:
Format in all cases: biochemical
MAGL = molecular target: T1, MAGL (Homo sapiens, UniProt Q99685); test: In vitro competitive activity-based protein profiling (FP-Rh or HT-01 probe, gel-based); conditions: prefrontal cortex (PFC) proteome, concentration not given (μM)
T1 construct: Proteomes (human prefrontal cortex or cell membrane fractions); from tissue
T1 sequence (Q99685 1-303): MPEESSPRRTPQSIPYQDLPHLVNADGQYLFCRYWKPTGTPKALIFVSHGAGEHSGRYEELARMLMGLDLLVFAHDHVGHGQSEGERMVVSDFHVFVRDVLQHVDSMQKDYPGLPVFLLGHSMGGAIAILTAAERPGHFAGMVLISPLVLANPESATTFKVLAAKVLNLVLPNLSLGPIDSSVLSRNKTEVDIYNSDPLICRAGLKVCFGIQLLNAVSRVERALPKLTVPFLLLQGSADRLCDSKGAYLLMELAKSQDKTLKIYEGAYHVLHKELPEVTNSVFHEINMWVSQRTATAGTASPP
Summary of the method: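 Human prefrontal cortex or cell membrane proteomes (1.0 mg/mL total protein) were preincubated with varying inhibitor concentrations for 30 min at 37° C. FP-Rh or HT-01 probe (50 μM DMSO stock) was then added for 30 min at room temperature, and samples were quenched in SDS loading buffer and resolved by SDS-PAGE.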

MGLL = molecular target: T2, MGLL (Mus musculus, UniProt O35678); test: In vitro competitive activity-based protein profiling, mouse brain proteome (MGLL); conditions: concentration not given (μM)
T2 construct: Brain; from tissue; host or cells: mouse brain proteome
T2 sequence (O35678 1-303): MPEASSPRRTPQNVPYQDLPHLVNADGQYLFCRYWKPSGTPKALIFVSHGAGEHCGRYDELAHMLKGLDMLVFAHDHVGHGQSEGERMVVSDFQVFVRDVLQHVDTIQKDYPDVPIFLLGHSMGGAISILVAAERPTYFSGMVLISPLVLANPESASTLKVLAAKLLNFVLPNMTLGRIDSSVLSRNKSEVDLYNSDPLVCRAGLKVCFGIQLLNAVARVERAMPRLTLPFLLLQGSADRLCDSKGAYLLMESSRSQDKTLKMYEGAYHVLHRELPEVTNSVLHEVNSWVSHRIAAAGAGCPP

ABHD6 = molecular target: T3, ABHD6 (Mus musculus, UniProt Q8R2Y0); test: In vitro competitive activity-based protein profiling, mouse brain proteome (ABHD6); conditions: mouse brain proteome; concentration not given (μM)
T3 construct: Brain; from tissue; host or cells: mouse brain proteome
T3 sequence (Q8R2Y0 1-336): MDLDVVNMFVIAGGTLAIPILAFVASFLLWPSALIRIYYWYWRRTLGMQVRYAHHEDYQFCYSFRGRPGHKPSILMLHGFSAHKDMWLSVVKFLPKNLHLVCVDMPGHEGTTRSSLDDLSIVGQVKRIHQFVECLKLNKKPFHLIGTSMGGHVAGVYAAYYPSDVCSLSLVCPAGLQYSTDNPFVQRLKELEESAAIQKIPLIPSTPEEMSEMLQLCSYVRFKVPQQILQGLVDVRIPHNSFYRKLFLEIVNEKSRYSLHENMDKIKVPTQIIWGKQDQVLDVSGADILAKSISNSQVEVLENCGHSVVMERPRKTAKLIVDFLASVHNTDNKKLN
Experimental: [The source words this procedure for another target and reports this target under the same test.] In Vitro Competitive Activity-Based Protein Profiling.
Proteomes (human prefrontal cortex or cell membrane fractions) (50 μL, 1.0 mg/mL total protein concentration) were preincubated with varying concentrations of inhibitors at 37° C. After 30 min, FP-Rh or HT-01 (1.0 μL, 50 μM in DMSO) was added and the mixture was incubated for another 30 min at room temperature. Reactions were quenched with SDS loading buffer (15 μL-4×) and run on SDS-PAGE.

% Inh MGLL PFC (Human, μM) (MAGL)	% Inh MGLL Brain (Mouse, μM) (MGLL)	% Inh ABHD6 Brain (Mouse, μM) (ABHD6)	Compound
### (### is ≥75%)	### (### is ≥75%)	### (### is ≥75%)	O=C(O)[C@H]1CCCN(c2cc(C(F)(F)F)ccc2CN2CC3(CCN(C(=O)OC(C(F)(F)F)C(F)(F)F)CC3)C2)C1 [Example 111, (S)-1-(2-((7-(((1,1,1,3,3,3-hexafluoropropan-2-yl)oxy)carbonyl)-2,7-diazaspiro[3,5]nonan-2-yl)methyl)-5-(trifluoromethyl)phenyl) piperidine-3-carboxylic acid]
### (### is ≥75%)	### (### is ≥75%)	## (## is between 25 and 75%)	CC1(C(=O)O)CCCN(c2cc(C(F)(F)F)ccc2CN2CC3(CCN(C(=O)OC(C(F)(F)F)C(F)(F)F)CC3)C2)C1 (stereo not drawn) [Example 112, l-(2-((7-(((1,1,1,3,3,3-Hexafluoropropan-2-yl)oxy)carbonyl)-2,7-diazaspiro[3.5]nonan-2-yl)methyl)-5-(trifluoromethyl)phenyl)-3-methylpiperidine-3-carboxylic acid]
### (### is ≥75%)	### (### is ≥75%)	# (# is ≤25%)	CC1(C(=O)O)CCN(c2cc(C(F)(F)F)ccc2CN2CC3(CCN(C(=O)OC(C(F)(F)F)C(F)(F)F)CC3)C2)C1 (stereo not drawn) [Example 115, l-(2-((7-(((1,1,1,3,3,3-Hexafluoropropan-2-yl)oxy)carbonyl)-2,7-diazaspiro[3,5]nonan-2-yl)methyl)-5-(trifluoromethyl)phenyl)-3-methylpyrrolidine-3-carboxylic acid]

The remaining lines, values behind:

Compound	% Inh MGLL PFC (Human, μM) (MAGL)	% Inh MGLL Brain (Mouse, μM) (MGLL)	% Inh ABHD6 Brain (Mouse, μM) (ABHD6)
O=C(OC(C(F)(F)F)C(F)(F)F)N1CCC2(CC1)CCN(C(=O)c1ccc(C(F)(F)F)c(Cl)c1)C2 [Example 109, 1,1,1,3,3,3-Hexafluoropropan-2-yl 2-(3-chloro-4-(trifluoromethyl)benzoyl)-2,8-diazaspiro[4.5]decane-8-carboxylate]	### (### is ≥75%)	### (### is ≥75%)	### (### is ≥75%)
O=C(OC(C(F)(F)F)C(F)(F)F)N1CCC2(CC1)CCN(C(=O)c1cc(Cl)cc(C(F)(F)F)c1)C2 [Example 110, 1,1,1,3,3,3-Hexafluoropropan-2-yl 2-(3-chloro-5-(trifluoromethyl)benzoyl)-2,8-diazaspiro[4.5]decane-8-carboxylate]	### (### is ≥75%)	### (### is ≥75%)	### (### is ≥75%)
O=C(O)C1COCCN1c1cc(C(F)(F)F)ccc1CN1CC2(CCN(C(=O)OC(C(F)(F)F)C(F)(F)F)CC2)C1 (stereo not drawn) [Example 113, 4-(2-((7-(((1,1,1,3,3,3-Hexafluoropropan-2-yl)oxy)carbonyl)-2,7-diazaspiro[3.5]nonan-2-yl)methyl)-5-(trifluoromethyl)phenyl)moiph oline-3-carboxylic acid]	# (# is ≤25%)	## (## is between 25 and 75%)	# (# is ≤25%)
CC1(C(=O)O)CCCN(c2cc(CN3CC4(CCN(C(=O)OC(C(F)(F)F)C(F)(F)F)CC4)C3)cc(C(F)(F)F)c2)C1 (stereo not drawn) [Example 114, l-(3-((7-(((1,1,1,3,3,3-Hexafluoropropan-2-yl)oxy)carbonyl)-2,7-diazaspiro[3,5]nonan-2-yl)methyl)-5-(trifluoromethyl)phenyl)-3-methylpiperidine-3-carboxylic acid]	### (### is ≥75%)	### (### is ≥75%)	# (# is ≤25%)
O=C(O)C1CCN(c2cc(Cl)cc(CN3CC4(CCN(C(=O)OC(C(F)(F)F)C(F)(F)F)CC4)C3)c2)CC1 [Example 116, l-(3-Chloro-5-((7-(((1,1,1,3,3,3-hexafluoropropan-2-yl)oxy)carbonyl)-2,7-diazaspiro[3.5]nonan-2-yl)methyl)phenyl)piperidine-4-carboxylic acid]	### (### is ≥75%)	### (### is ≥75%)	### (### is ≥75%)
